Test results published in patent US20200223889A1, “Bicyclic Compounds Capable of Binding to Melanocortin 4 Receptor” (Novo Nordisk A/S, priority 2017, published 2020).
Positions of bridges follow the written chain, without caps; N, C: chain ends. Non-standard residues stand in square brackets, D forms with d. Residues, ends and D or L forms follow the SMILES beside them. Phe(3,4-(OMe)2) = COc1ccc(C[C@H](N)C(=O)O)cc1OC; Cit = NC(=O)NCCC[C@H](N)C(=O)O; Aib = CC(C)(N)C(=O)O

Key:
[1] = target: T1, human MC4R (Homo sapiens, UniProt P32245); assay: Functional cAMP assay (CisBio HTRF) in BHK cells expressing human MC4R; type: cell-based; conditions: for EC50: BHK cells expressing human MC4R, '>' = highest dose used with no response, read-out: MC4R cAMP EC50; for MC1R/MC4R cAMP EC50 ratio: MC1R cAMP EC50 divided by MC4R cAMP EC50
T1 construct: expressed in transfected cells
Method in brief: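 Stably transfected BHK cells expressing human MC1R or MC4R; cAMP quantified by HTRF (cAMP-d2/cryptate) after 30 min compound stimulation at 25 °C in DMEM-based buffer with 1 mM IBMX. Compounds were prepared as 10-fold serial dilutions starting at 2 μM (working solution, 2× final). Readout after 1 h at 25 °C; non-linear regression.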

[2] = target: T1, human MC4R; assay: 125NDP-α-MSH competitive binding to membranes of BHK cells expressing human MC4 receptor (filtration assay); conditions: human MC4R, BHK cell membranes, 125NDP-α-MSH radioligand; read-out: MC4R binding Ki
Procedure: In Vitro ^125NDP-α-MSH Binding to Recombinant BHK Cells Expressing Human MC4 Receptor (Filtration Assay)
In order to assess the binding affinity of the selected compounds for the human MC4R competitive binding assays was performed with radiolabeled NDP-alpha MSH (^125NDP-α-MSH).
The assay was performed in 96-well filterplates (Unifilter) using BHK cells stably expressing the human MC4 receptor.
The BHK cell membranes were prepared from frozen or fresh cells that were homogenized in 20 mM HEPES pH 7.1, 5 mM MgCl2, 1 mg/ml bacitracin (buffer 1) and centrifuged at 15000 rpm at 4° C., 10 min in a Sorvall RC 5B plus, SS-34 rotor. The supernatant was discarded, and the pellets were re-suspended in buffer 1, homogenized and centrifuged two more times. The final pellets were re-suspended in buffer 1 and the protein concentration was measured and adjusted with buffer 1 to 5 mg/ml and the membrane preparation was kept at −80° C. until assay. The assay was run on a dilution of this cell membrane suspension without any further preparation. The suspension was diluted to give maximally 10% specific binding, i.e. to approx. 50-100 fold dilution, optimized after each membrane preparation. The assay was performed in a total volume of 200 μl: 50 μl of cell suspension, 50 μl of ^125NDP-α-MSH (apx. […] in final concentration), 50 μl of test compound and 50 μl binding buffer were mixed and incubated for 2 h at 25° C. (binding buffer: 25 mM HEPES, pH 7.0, 1 mM CaCl2), 1 mM MgSO4, 1 mM EGTA, 0.005% Tween™ 20 and 0.1% HSA or, alternatively, 0.1% ovalbumin (Sigma; catalogue No. A-5503)). Test compounds were dissolved in 100% DMSO and diluted in binding buffer in a dose range from 1 μM to 0.001 nM. Radiolabelled ligand and membranes were diluted in binding buffer. The incubation was stopped by dilution with 8×100 μl ice-cold 0.9% NaCl. The radioactivity retained on the filters was counted using a Packard Topcounter. The data were analysed by non-linear regression analysis of binding curves, using the Windows™ program GraphPad™ Prism (GraphPad Software, USA).

T1 sequence (P32245 whole entry): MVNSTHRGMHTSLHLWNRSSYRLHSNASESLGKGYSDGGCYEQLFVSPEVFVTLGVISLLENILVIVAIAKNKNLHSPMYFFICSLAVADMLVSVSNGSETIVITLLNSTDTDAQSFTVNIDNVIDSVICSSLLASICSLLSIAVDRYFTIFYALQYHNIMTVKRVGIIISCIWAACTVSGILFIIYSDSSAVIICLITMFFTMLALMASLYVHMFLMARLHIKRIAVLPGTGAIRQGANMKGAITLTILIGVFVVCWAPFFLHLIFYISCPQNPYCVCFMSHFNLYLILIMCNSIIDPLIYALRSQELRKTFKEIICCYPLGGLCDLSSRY

In the case of `C[C@@H]1NC(=O)[C@@H]2CSSC[C@H](NC(=O)[C@H](CCCNC(=N)N)NC(=O)[C@H](Cc3c[nH]cn3)NC(=O)[C@H](CCCCN)NC(=O)[C@H](CCCCN)NC1=O)C(=O)N1CCC[C@H]1C(=O)N[C@@H](Cc1c[nH]cn1)C(=O)N[C@H](Cc1ccccc1)C(=O)N[C@@H](Cc1c[nH]cn1)C(=O)N[C@@H](Cc1c[nH]c3ccccc13)C(=O)N2` [Chem. 95, c[c[Cys-Pro-His-D-Phe-His-Trp-Cys]- Ala-Lys-Lys-His-Arg]] (cyclo(AKKHRCPH[dF]HWC); disulfide 6-12), the EC50 [1] is reported as 0.22 nM, the “MC1R/MC4R cAMP EC50 ratio” value [1] is reported as 399 and the Ki [2] is reported as 0.07 nM.

In the case of `N=C(N)NCCC[C@@H]1NC(=O)[C@@H](Cc2ccccc2)NC(=O)[C@H](Cc2c[nH]cn2)NC(=O)CNC(=O)[C@@H]2CSSC[C@H](NC(=O)[C@H](Cc3c[nH]c4ccccc34)NC1=O)C(=O)NCC(=O)N[C@@H](Cc1c[nH]cn1)C(=O)N[C@H](Cc1ccccc1)C(=O)N[C@@H](CCCNC(=N)N)C(=O)N[C@@H](Cc1c[nH]c3ccccc13)C(=O)N2` [Chem. 2, c[c[Cys-Gly-His-D-Phe-Arg-Trp-Cys]- Gly-His-D-Phe-Arg-Trp]] (cyclo(CGH[dF]RWCGH[dF]RW); disulfide 1-7), the EC50 [1] is reported as 0.01 nM, the “MC1R/MC4R cAMP EC50 ratio” value [1] is reported as 154 and the Ki [2] is reported as 0.07 nM.

In the case of `C[C@@H]1NC(=O)[C@H](C)NC(=O)[C@H](Cc2c[nH]c3ccccc23)NC(=O)[C@H](CCCNC(=N)N)NC(=O)[C@@H](Cc2ccccc2)NC(=O)[C@H](Cc2c[nH]cn2)NC(=O)[C@H](C)NC(=O)[C@H](C)NC(=O)[C@H](Cc2c[nH]c3ccccc23)NC(=O)[C@H](CCCNC(=N)N)NC(=O)[C@@H](Cc2ccccc2)NC(=O)[C@H](Cc2c[nH]cn2)NC1=O` [Chem. 7, c[Ala-Ala-His-D-Phe-Arg-Trp-Ala-Ala- His-D-Phe-Arg-Trp]] (cyclo(AAH[dF]RWAAH[dF]RW)), the EC50 [1] is reported as 0.06 nM, the “MC1R/MC4R cAMP EC50 ratio” value [1] is reported as 76 and the Ki [2] is reported as 0.47 nM.

With `CC1(C)NC(=O)[C@@H]2CSSC[C@H](NC(=O)[C@H](Cc3c[nH]c4ccccc34)NC(=O)[C@H](CCCCN)NC(=O)[C@@H](Cc3ccccc3)NC(=O)[C@H](Cc3c[nH]cn3)NC1=O)C(=O)NC(C)(C)C(=O)N[C@@H](Cc1c[nH]cn1)C(=O)N[C@H](Cc1ccccc1)C(=O)N[C@@H](CCCCN)C(=O)N[C@@H](Cc1c[nH]c3ccccc13)C(=O)N2` [Chem. 40, c[c[Cys-Aib-His-D-Phe-Lys-Trp-Cys]- Aib-His-D-Phe-Lys-Trp]] (cyclo([Aib]H[dF]KWC[Aib]H[dF]KWC); disulfide 6-12) the EC50 [1] was 0.29 nM, the “MC1R/MC4R cAMP EC50 ratio” value [1] was 38 and the Ki [2] was 0.31 nM.

For `C[C@@H]1NC(=O)[C@@H]2CSSC[C@H](NC(=O)[C@H](Cc3c[nH]c4ccccc34)NC(=O)[C@H](CCCCN)NC(=O)[C@H](CCCCN)NC(=O)[C@H](CCCCN)NC1=O)C(=O)N[C@@H](CCCCN)C(=O)N[C@@H](Cc1c[nH]cn1)C(=O)N[C@H](Cc1ccccc1)C(=O)N[C@@H](Cc1c[nH]cn1)C(=O)N[C@@H](Cc1c[nH]c3ccccc13)C(=O)N2` [Chem. 76, c[c[Cys-Lys-His-D-Phe-His-Trp-Cys]- Ala-Lys-Lys-Lys-Trp]] (cyclo(AKKKWCKH[dF]HWC); disulfide 6-12), the EC50 [1] was 0.16 nM, the “MC1R/MC4R cAMP EC50 ratio” value [1] was 136 and the Ki [2] was 0.09 nM.

For `C[C@@H]1NC(=O)[C@@H]2CSSC[C@H](NC(=O)[C@H](Cc3c[nH]c4ccccc34)NC(=O)[C@H](Cc3c[nH]cn3)NC(=O)[C@@H](Cc3ccccc3)NC(=O)[C@H](Cc3c[nH]cn3)NC1=O)C(=O)N[C@@H](C)C(=O)N[C@@H](CCCCN)C(=O)N[C@@H](CCCCN)C(=O)N[C@@H](CCCCN)C(=O)N[C@@H](Cc1c[nH]c3ccccc13)C(=O)N2` [Chem. 60, c[c[Cys-Ala-His-D-Phe-His-Trp-Cys]- Ala-Lys-Lys-Lys-Trp]] (cyclo(AH[dF]HWCAKKKWC); disulfide 6-12), the EC50 [1] was 0.17 nM, the “MC1R/MC4R cAMP EC50 ratio” value [1] was 313 and the Ki [2] was 0.1 nM.

With `C[C@@H]1NC(=O)[C@@H]2CSSC[C@H](NC(=O)[C@H](Cc3c[nH]c4ccccc34)NC(=O)[C@H](CCCCN(C)C)NC(=O)[C@@H](Cc3ccccc3)NC(=O)[C@H](Cc3c[nH]cn3)NC1=O)C(=O)N[C@@H](C)C(=O)N[C@@H](Cc1c[nH]cn1)C(=O)N[C@H](Cc1ccccc1)C(=O)N[C@@H](CCCCN(C)C)C(=O)N[C@@H](Cc1c[nH]c3ccccc13)C(=O)N2` [Chem. 18, c[c[Cys-Ala-His-D-Phe-Lys(Me)2-Trp- Cys]-Ala-His-D-Phe-Lys(Me)2-Trp]] the EC50 [1] was 0.12 nM, the “MC1R/MC4R cAMP EC50 ratio” value [1] was 35 and the Ki [2] was 0.38 nM.

`CC(C)[C@@H]1NC(=O)[C@@H]2CSSC[C@H](NC(=O)[C@H](Cc3c[nH]c4ccccc34)NC(=O)[C@H](CCCNC(=N)N)NC(=O)[C@@H](Cc3ccccc3)NC(=O)[C@H](Cc3c[nH]cn3)NC1=O)C(=O)N[C@@H](C(C)C)C(=O)N[C@@H](Cc1c[nH]cn1)C(=O)N[C@H](Cc1ccccc1)C(=O)N[C@@H](CCCNC(=N)N)C(=O)N[C@@H](Cc1c[nH]c3ccccc13)C(=O)N2` [Chem. 36, c[c[Cys-Val-His-D-Phe-Arg-Trp-Cys]- Val-His-D-Phe-Arg-Trp]] (cyclo(CVH[dF]RWCVH[dF]RW); disulfide 1-7) was tested, and the EC50 [1] was 0.04 nM, the “MC1R/MC4R cAMP EC50 ratio” value [1] was 26 and the Ki [2] was 0.12 nM.

For `C[C@@H]1NC(=O)[C@@H]2CSSC[C@H](NC(=O)[C@H](Cc3c[nH]c4ccccc34)NC(=O)[C@H](CCCCN)NC(=O)[C@H](CCCCN)NC(=O)[C@H](CCCCN)NC1=O)C(=O)N[C@H](CCCCN)C(=O)N[C@@H](Cc1c[nH]cn1)C(=O)N[C@H](Cc1ccccc1)C(=O)N[C@@H](Cc1c[nH]cn1)C(=O)N[C@@H](Cc1c[nH]c3ccccc13)C(=O)N2` [Chem. 84, c[c[Cys-D-Lys-His-D-Phe-His-Trp- Cys]-Ala-Lys-Lys-Lys-Trp]] (cyclo(AKKKWC[dK]H[dF]HWC); disulfide 6-12), the EC50 [1] was 0.59 nM, the “MC1R/MC4R cAMP EC50 ratio” value [1] was 74 and the Ki [2] was 0.19 nM.

`NCCCC[C@@H]1NC(=O)[C@H](CCCCN)NC(=O)[C@@H]2CSSC[C@H](NC(=O)[C@H](Cc3c[nH]c4ccccc34)NC(=O)[C@H](CCCCN)NC(=O)[C@H](CCCCN)NC1=O)C(=O)N1CCC[C@H]1C(=O)N[C@@H](Cc1c[nH]cn1)C(=O)N[C@H](Cc1ccccc1)C(=O)N[C@@H](Cc1c[nH]cn1)C(=O)N[C@@H](Cc1c[nH]c3ccccc13)C(=O)N2` [Chem. 75, c[c[Cys-Pro-His-D-Phe-His-Trp-Cys]- Lys-Lys-Lys-Lys-Trp]] (cyclo(CKKKKWCPH[dF]HW); disulfide 1-7) was tested, and the EC50 [1] was 0.44 nM, the “MC1R/MC4R cAMP EC50 ratio” value [1] was 155 and the Ki [2] was 0.11 nM.

In the case of `COc1ccc(C[C@@H]2NC(=O)[C@H](CCCNC(=N)N)NC(=O)[C@@H](Cc3ccccc3)NC(=O)[C@H](Cc3c[nH]cn3)NC(=O)[C@@H]3CCCN3C(=O)[C@@H]3CSSC[C@H](NC2=O)C(=O)N[C@@H](C)C(=O)N[C@@H](CCCCN)C(=O)N[C@@H](CCCCN)C(=O)N[C@@H](CCCCN)C(=O)N[C@@H](CCCNC(=N)N)C(=O)N3)cc1OC` [Chem. 94, c[c[Cys-Pro-His-D-Phe-Arg-3,4- DiMeO-Phe-Cys]-Ala-Lys-Lys-Lys- Arg]] (cyclo(AKKKRCPH[dF]R[Phe(3,4-(OMe)2)]C); disulfide 6-12), the “MC1R/MC4R cAMP EC50 ratio” value [1] is reported as 26 and the Ki [2] is reported as 0.25 nM.

With `C[C@@H]1NC(=O)[C@@H]2CSSC[C@H](NC(=O)[C@H](CCCNC(=N)N)NC(=O)[C@H](CCCCN)NC(=O)[C@H](CCCCN)NC(=O)[C@H](CCCCN)NC1=O)C(=O)N1CCC[C@H]1C(=O)N[C@@H](Cc1c[nH]cn1)C(=O)N[C@H](Cc1ccccc1)C(=O)N[C@@H](CCCNC(N)=O)C(=O)N[C@@H](Cc1c[nH]c3ccccc13)C(=O)N2` [Chem. 72, c[c[Cys-Pro-His-D-Phe-Cit-Trp-Cys]- Ala-Lys-Lys-Lys-Arg]] (cyclo(AKKKRCPH[dF][Cit]WC); disulfide 6-12) the EC50 [1] was 0.03 nM, the “MC1R/MC4R cAMP EC50 ratio” value [1] was 195 and the Ki [2] was 0.03 nM.

`C[C@@H]1NC(=O)[C@@H]2CSSC[C@H](NC(=O)[C@H](Cc3c[nH]c4ccccc34)NC(=O)[C@H](CCC(N)=O)NC(=O)[C@@H](Cc3ccccc3)NC(=O)[C@H](Cc3c[nH]cn3)NC1=O)C(=O)N[C@@H](C)C(=O)N[C@@H](CCCCN)C(=O)N[C@H](CCCCN)C(=O)N[C@@H](CCCCN)C(=O)N[C@@H](Cc1c[nH]c3ccccc13)C(=O)N2` [Chem. 57, c[c[Cys-Ala-His-D-Phe-Gln-Trp-Cys]- Ala-Lys-D-Lys-Lys-Trp]] (cyclo(AH[dF]QWCAK[dK]KWC); disulfide 6-12) was tested, and the EC50 [1] was 0.19 nM, the “MC1R/MC4R cAMP EC50 ratio” value [1] was 55 and the Ki [2] was 0.21 nM.
